Experimental data published in patent publication US12240844B2 (Voronoi, Inc., priority 2019, dated 2025).

What was measured:
[1] = test system: THP-1; test: THP-1 GI50 (Table 4, method not given); type: cell-based; conditions: Homo sapiens; THP-1 cells
[2] = test system: SHP-77; test: SHP-77 cancer cell proliferation inhibition (Cell Titer-Glo); type: cell-based; conditions: Homo sapiens, SHP77, SHP-77 small cell lung cancer cell line, 72 hours
In short: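 GI50 comes from CellTiter-Glo luminescence, read 10 min after reagent addition at RT, following 72 h compound treatment. Eleven concentrations were used (⅓ steps, highest 10 μM final) on 2000 cells/well. MDA-MB-231 and MDA-MB-468 were grown in DMEM, SHP-77 in RPMI.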

[3] = test system: human DYRK1A and Tau; test: Tau phosphorylation inhibition, ClariCELL Kinase Cell-Based Assay (Carnabio)
In short: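 HEK293 cells transiently expressing human DYRK1A and Tau were exposed to compound, then lysed. Released Tau was captured on plate and its phosphorylation quantified by ELISA with a phospho-Tau-specific antibody.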

[4] = target: T1, LRRK2, LRRK2 (G2019S), DYRK1, CLK1 and TTK kinases (Homo sapiens, UniProt P49759); test: Enzyme IC50 by Kinase HotSpot service (Reaction Biology Corporation), values marked with *; type: biochemical; conditions: CLK1, ATP 10 uM
T1 construct: CLK1 IC50 (marked with *); other: CLK1; Kinase HotSpot service (Reaction Biology), ATP 10 uM
In short: (§1)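 Radiometric-service kinase assays (Reaction Biology HotSpot protocol) run at 10 uM ATP under uniform conditions. Compounds tested as 3-fold dilution series from a top concentration of […] to give IC50.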

[5] = target: T2, LRRK2, LRRK2 (G2019S), DYRK1, CLK1 and TTK kinases (Homo sapiens, UniProt Q5S007); test: as above; type: biochemical; conditions: LRRK2, ATP 10 uM
T2 construct: LRRK2 IC50 (marked with *); other: LRRK2; Kinase HotSpot service (Reaction Biology), ATP 10 uM
In short: as §1

T2 sequence (Q5S007 whole entry G2019S): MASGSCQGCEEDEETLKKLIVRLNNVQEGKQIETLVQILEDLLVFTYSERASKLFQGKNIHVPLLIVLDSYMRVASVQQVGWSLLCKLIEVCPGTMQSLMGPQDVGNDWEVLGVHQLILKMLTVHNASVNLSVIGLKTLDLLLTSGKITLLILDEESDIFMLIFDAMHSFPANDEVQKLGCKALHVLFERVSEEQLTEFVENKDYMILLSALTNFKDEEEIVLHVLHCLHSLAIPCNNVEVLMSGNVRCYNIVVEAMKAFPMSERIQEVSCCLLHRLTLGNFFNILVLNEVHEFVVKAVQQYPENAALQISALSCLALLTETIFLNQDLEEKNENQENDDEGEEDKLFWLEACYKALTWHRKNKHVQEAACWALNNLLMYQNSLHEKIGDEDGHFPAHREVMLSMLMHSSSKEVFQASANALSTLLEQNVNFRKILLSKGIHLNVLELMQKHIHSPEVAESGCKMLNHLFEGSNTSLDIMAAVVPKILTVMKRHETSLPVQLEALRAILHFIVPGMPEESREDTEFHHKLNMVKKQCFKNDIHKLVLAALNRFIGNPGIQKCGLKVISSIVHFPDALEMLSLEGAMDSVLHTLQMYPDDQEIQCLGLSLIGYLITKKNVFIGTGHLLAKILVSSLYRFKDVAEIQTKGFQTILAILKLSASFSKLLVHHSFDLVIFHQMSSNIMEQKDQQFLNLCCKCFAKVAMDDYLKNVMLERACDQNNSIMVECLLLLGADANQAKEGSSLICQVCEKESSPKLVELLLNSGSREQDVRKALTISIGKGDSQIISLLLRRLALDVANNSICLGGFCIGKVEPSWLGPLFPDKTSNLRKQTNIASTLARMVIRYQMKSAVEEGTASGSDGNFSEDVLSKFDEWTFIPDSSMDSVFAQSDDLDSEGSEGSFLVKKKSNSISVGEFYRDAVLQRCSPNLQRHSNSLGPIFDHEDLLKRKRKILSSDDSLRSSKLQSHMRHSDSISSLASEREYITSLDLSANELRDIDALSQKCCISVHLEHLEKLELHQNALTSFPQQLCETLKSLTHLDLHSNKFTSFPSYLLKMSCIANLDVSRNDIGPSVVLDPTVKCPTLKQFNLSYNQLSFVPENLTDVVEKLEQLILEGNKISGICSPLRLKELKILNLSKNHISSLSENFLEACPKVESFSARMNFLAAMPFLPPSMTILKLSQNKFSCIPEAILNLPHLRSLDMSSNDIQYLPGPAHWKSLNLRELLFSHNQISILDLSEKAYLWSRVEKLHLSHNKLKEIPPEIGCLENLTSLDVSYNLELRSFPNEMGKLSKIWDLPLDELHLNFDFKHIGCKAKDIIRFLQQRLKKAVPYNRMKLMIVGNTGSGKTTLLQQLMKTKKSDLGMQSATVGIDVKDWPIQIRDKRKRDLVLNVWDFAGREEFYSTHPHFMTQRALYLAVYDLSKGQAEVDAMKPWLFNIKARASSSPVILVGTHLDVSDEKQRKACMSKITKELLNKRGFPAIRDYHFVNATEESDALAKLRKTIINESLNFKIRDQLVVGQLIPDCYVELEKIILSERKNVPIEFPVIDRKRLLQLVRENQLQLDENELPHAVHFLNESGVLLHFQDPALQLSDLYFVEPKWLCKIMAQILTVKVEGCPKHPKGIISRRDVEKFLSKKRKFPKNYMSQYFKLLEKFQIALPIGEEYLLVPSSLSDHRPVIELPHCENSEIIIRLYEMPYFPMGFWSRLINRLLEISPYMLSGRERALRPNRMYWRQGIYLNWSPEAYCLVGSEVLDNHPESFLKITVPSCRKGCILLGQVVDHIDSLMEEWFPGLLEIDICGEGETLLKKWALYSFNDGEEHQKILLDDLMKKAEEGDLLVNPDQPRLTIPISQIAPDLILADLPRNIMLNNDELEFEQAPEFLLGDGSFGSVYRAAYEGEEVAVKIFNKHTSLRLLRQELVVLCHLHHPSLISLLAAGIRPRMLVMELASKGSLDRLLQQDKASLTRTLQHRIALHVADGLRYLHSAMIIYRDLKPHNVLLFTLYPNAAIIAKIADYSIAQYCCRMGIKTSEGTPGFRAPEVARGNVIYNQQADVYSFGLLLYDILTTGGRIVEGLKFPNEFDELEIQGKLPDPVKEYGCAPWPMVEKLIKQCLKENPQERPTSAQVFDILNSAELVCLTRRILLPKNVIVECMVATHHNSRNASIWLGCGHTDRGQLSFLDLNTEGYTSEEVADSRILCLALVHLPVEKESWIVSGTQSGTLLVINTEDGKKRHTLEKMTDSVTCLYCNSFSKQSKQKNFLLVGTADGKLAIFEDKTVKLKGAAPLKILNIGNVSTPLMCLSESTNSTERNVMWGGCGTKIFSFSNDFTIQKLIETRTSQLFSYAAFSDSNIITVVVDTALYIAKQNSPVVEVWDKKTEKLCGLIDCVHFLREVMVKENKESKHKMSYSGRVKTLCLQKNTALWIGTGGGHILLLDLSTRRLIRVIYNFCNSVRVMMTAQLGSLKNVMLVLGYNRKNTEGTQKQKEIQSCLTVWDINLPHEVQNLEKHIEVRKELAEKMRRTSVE
T1 sequence (P49759 whole entry, stated change not applied): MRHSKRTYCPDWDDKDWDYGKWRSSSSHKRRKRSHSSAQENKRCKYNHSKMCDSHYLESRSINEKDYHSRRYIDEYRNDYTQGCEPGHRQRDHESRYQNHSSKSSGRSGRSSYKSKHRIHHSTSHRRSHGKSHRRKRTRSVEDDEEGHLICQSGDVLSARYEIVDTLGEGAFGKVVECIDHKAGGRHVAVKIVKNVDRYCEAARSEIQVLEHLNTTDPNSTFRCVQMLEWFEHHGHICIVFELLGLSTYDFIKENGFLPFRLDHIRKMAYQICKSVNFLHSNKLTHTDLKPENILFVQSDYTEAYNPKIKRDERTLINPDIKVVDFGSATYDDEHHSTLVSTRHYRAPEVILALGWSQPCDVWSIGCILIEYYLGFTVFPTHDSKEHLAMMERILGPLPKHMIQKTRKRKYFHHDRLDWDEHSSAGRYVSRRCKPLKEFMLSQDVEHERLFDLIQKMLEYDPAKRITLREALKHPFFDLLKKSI

Row | SMILES | GI50 [1] | GI50 [2] | inhibition at 0.25 µM [3] | inhibition at 0.5 µM [3] | inhibition at 1 µM [3] | IC50 [4] | IC50 [5]
1 | CCNc1cc(Nc2ccc(C(=O)N3CCC(N4CCOCC4)CC3)c3c2OCO3)nc2[nH]cc(C(F)(F)F)c12 [Example 37, (7-((4-(ethylamino)-3-(trifluoromethyl)-1H-pyrrolo[2,3-b]pyridin-6-yl)amino)benzo[d][1,3]dioxol-4-yl)(4-morpholinopiperidin-1-yl)methanone] | 14400 nM | – | – | – | – | – | –
2 | CCNc1cc(Nc2ccc(P3(=O)CCN(C(C)=O)CC3)cc2OC)nc2[nH]cc(C(F)(F)F)c12 [Example 42, 1-(4-(4-((4-(ethylamino)-3-(trifluoromethyl)-1H-pyrrolo[2,3-b]pyridin-6-yl)amino)-3-methoxyphenyl)-4-oxido-1,4-azaphosphinan-1-yl)ethan-1-one] | 16300 nM | 301 to 1000 nM | – | – | – | – | –
3 | CCNc1cc(Nc2ccc(C(=O)N3C[C@@H]4C[C@H]3CO4)c3c2OCCO3)nc2[nH]cc(C(F)(F)F)c12 [Example 44, ((1S,4S)-2-oxa-5-azabicyclo[2.2.1]heptan-5-yl)(8-((4-(ethylamino)-3-(trifluoromethyl)-1H-pyrrolo[2,3-b]pyridin-6-yl)amino)-2,3-dihydrobenzo[b] [1,4]dioxin-5-yl)methanone] | 146000 nM | 301 to 1000 nM | – | – | – | – | –
4 | O=C(c1ccc(Nc2cc(C3CC3)c3c(C(F)(F)F)c[nH]c3n2)c2c1CCO2)N1CCOCC1 [Example 91, (7-((4-cyclopropyl-3-(trifluoromethyl)-1H-pyrrolo[2,3-b]pyridin-6-yl)amino)-2,3-dihydrobenzofuran-4-yl)(morpholino) methanone] | – | – | 12.9% | 33.1% | 44.3% | < 100 nM | –
5 | CNc1cc(Nc2ccc(S(=O)(=O)N3CCC(N4CCOCC4)CC3)cc2OC)nc2[nH]cc(C(F)(F)F)c12 [Example 184, N^6-(2-methoxy-4-((4-morpholinopiperidin-1-yl)sulfonyl)phenyl)-N^4-methyl-3-(trifluoromethyl)-1H-pyrrolo[2,3-b]pyridine-4,6-diamine] | – | 101 to 300 nM | 28.5% | 58.2% | 76.1% | < 100 nM | < 100 nM
6 | COCCNc1cc(Nc2ccc(P3(=O)CCN(C4CC4)CC3)cc2OC)nc2[nH]cc(C(F)(F)F)c12 [Example 207, 1-cyclopropyl-4-(3-methoxy-4-((4-((2-methoxyethyl)amino)-3-(trifluoromethyl)-1H-pyrrolo[2,3-b]pyridin-6-yl)amino)phenyl)-1,4-azaphosphinane 4-oxide] | 9390 nM | 301 to 1000 nM | – | – | – | – | –
7 | O=C(c1ccc(Nc2cc(C3CC3)c3c(C(F)(F)F)c[nH]c3n2)c2c1CCO2)N1CC[C@H](N2CCOCC2)C1 [Example 237, (S)-(7-((4-cyclopropyl-3-(trifluoromethyl)-1H-pyrrolo[2,3-b]pyridin-6-yl)amino)-2,3-dihydrobenzofuran-4-yl)(3-morpholinopyrrolidin-1-yl)methanone] | – | – | 7.7% | 20.5% | 34.5% | < 100 nM | 101 to 300 nM
8 | O=C(c1ccc(Nc2cc(C3CC3)c3c(C(F)(F)F)c[nH]c3n2)c2c1CCO2)N1CC[C@@H](N2CCOCC2)C1 [Example 238, (R)-(7-((4-cyclopropyl-3-(trifluoromethyl)-1H-pyrrolo[2,3-b]pyridin-6-yl)amino)-2,3-dihydrobenzofuran-4-yl)(3-morpholinopyrrolidin-1-yl)methanone] | – | – | 9.8% | 26.4% | 48.3% | < 100 nM | 101 to 300 nM
